According to patent US20120121591A1 (priority 2009, published 2012):
Positions of bridges follow the written chain, without caps; N, C: chain ends. Residues, ends and D or L forms follow the SMILES beside them.

Assays:
Type in all cases: cell-based
hKv1.3 = hKv1.3 (Homo sapiens, UniProt P22001); assay: cell-based; conditions: Kv1.3 (IWQ) IC50 (nM, Avg)
[1] = system: IL-2 secretion from T cells in human whole blood; conditions: read-out: WB (IL-2) IC50 (nM, Avg)
[2] = system: IFN-g secretion from T cells in human whole blood; conditions: read-out: WB (IFNg) IC50 (nM, Avg)

Sequence of hKv1.3 (P22001 whole entry): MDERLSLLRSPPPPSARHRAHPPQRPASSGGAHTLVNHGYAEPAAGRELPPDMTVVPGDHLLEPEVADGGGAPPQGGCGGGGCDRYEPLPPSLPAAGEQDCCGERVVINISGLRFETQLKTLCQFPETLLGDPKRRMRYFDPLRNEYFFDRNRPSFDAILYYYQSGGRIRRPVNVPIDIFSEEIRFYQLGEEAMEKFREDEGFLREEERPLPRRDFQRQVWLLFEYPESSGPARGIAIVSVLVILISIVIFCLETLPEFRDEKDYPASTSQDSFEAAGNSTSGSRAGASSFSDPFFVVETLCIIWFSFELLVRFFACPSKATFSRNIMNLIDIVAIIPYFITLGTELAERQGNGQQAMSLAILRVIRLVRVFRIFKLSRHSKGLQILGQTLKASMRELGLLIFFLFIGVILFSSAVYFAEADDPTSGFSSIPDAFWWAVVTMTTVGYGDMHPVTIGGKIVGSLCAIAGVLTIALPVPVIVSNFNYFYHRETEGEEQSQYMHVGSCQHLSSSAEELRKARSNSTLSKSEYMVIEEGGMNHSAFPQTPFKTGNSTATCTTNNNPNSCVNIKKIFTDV

Compound | IC50 (hKv1.3) [nM] | IC50 [1] [nM] | IC50 [2] [nM]
CC[C@H](C)[C@@H]1NC(=O)[C@@H](NC(=O)[C@H](CO)NC(=O)[C@@H](N)CCCNC(=N)N)CSSC[C@@H](C(=O)O)NC(=O)[C@H]([C@@H](C)O)NC(=O)CNC(=O)[C@@H]2CSSC[C@@H]3NC(=O)[C@H](CCCCN)NC(=O)[C@H](Cc4ccccc4)NC(=O)[C@H](C)NC(=O)[C@H]([C@@H](C)O)NC(=O)[C@H](CSSC[C@H](NC(=O)[C@H](Cc4ccccc4)NC(=O)[C@H](CO)NC(=O)[C@H](CC(C)C)NC(=O)[C@H](CCCNC(=N)N)NC(=O)[C@H](Cc4ccc(O)cc4)NC(=O)[C@H](CCCCN)NC(=O)[C@H](CCSC)NC(=O)[C@H](CO)NC(=O)[C@H](Cc4c[nH]cn4)NC(=O)[C@H](CCCCN)NC3=O)C(=O)N[C@@H](CCCCN)C(=O)N[C@@H](CCCCN)C(=O)N[C@@H]([C@@H](C)O)C(=O)N2)NC(=O)[C@H](CCCNC(=N)N)NC(=O)[C@H](CO)NC(=O)[C@H](CCCCN)NC(=O)[C@@H]2CCCN2C(=O)[C@H]([C@@H](C)CC)NC(=O)[C@H]([C@@H](C)O)NC(=O)[C@H](CC(=O)O)NC1=O [[Lys16, Lys29]ShK] | 0.071 | 0.112 | 0.143
CC[C@H](C)[C@@H]1NC(=O)[C@@H](NC(=O)[C@H](CO)NC(=O)[C@@H](N)CCCNC(=N)N)CSSC[C@@H](C(=O)O)NC(=O)[C@H]([C@@H](C)O)NC(=O)CNC(=O)[C@@H]2CSSC[C@@H]3NC(=O)[C@H](CCC(N)=O)NC(=O)[C@H](Cc4ccccc4)NC(=O)[C@H](C)NC(=O)[C@H]([C@@H](C)O)NC(=O)[C@H](CSSC[C@H](NC(=O)[C@H](Cc4ccccc4)NC(=O)[C@H](CO)NC(=O)[C@H](CC(C)C)NC(=O)[C@H](CCCNC(=N)N)NC(=O)[C@H](Cc4ccc(O)cc4)NC(=O)[C@H](CCCCN)NC(=O)[C@H](CCSC)NC(=O)[C@H](CO)NC(=O)[C@H](Cc4c[nH]cn4)NC(=O)[C@H](CCCCN)NC3=O)C(=O)N[C@@H](CCCNC(=N)N)C(=O)N[C@@H](CCCCN)C(=O)N[C@@H]([C@@H](C)O)C(=O)N2)NC(=O)[C@H](CCCNC(=N)N)NC(=O)[C@H](CO)NC(=O)[C@H](CCCCN)NC(=O)[C@@H]2CCCN2C(=O)[C@H](C)NC(=O)[C@H]([C@@H](C)O)NC(=O)[C@H](CC(=O)O)NC1=O [[Ala7]ShK] | 0.188 | 0.886 | 2.22
CC[C@H](C)[C@@H]1NC(=O)[C@H]([C@@H](C)O)NC(=O)[C@H](CC(=O)O)NC(=O)[C@H](CCC(=O)O)NC(=O)[C@@H](NC(=O)[C@H](CO)NC(=O)[C@@H](N)CCCNC(=N)N)CSSC[C@@H](C(N)=O)NC(=O)[C@H]([C@@H](C)O)NC(=O)CNC(=O)[C@@H]2CSSC[C@@H]3NC(=O)[C@H](CCCCN)NC(=O)[C@H](Cc4ccccc4)NC(=O)[C@H](C)NC(=O)[C@H]([C@@H](C)O)NC(=O)[C@H](CSSC[C@H](NC(=O)[C@H](Cc4ccccc4)NC(=O)[C@H](CO)NC(=O)[C@H](CC(C)C)NC(=O)[C@H](CCCNC(=N)N)NC(=O)[C@H](Cc4ccc(O)cc4)NC(=O)[C@H](CCCCN)NC(=O)[C@H](CCSC)NC(=O)[C@H](CO)NC(=O)[C@H](Cc4c[nH]cn4)NC(=O)[C@H](CCCNC(=N)N)NC3=O)C(=O)N[C@@H](CCCCN)C(=O)N[C@@H](CCCNC(=N)N)C(=O)N[C@@H]([C@@H](C)O)C(=O)N2)NC(=O)[C@H](CCCNC(=N)N)NC(=O)[C@H](CCC(=O)O)NC(=O)[C@H](CCCCN)NC(=O)[C@@H]2CCCN2C1=O [[Glu4,10; Lys16,29;Arg18,30]ShK-amide] (H-RSCEDTIPKERCTAFKCRHSMKYRLSFCKRTCGTC-NH2; disulfide 3-35, 12-28, 17-32) | 0.064 | 0.114 | 0.217
CCC[C@@H]1NC(=O)[C@H](CO)NC(=O)[C@H](Cc2c[nH]cn2)NC(=O)[C@H](CCCCN)NC(=O)[C@@H]2CSSC[C@@H]3NC(=O)[C@H]([C@@H](C)O)NC(=O)[C@H](CCCCN)NC(=O)[C@H](CCCNC(=N)N)NC(=O)[C@H](CSSC[C@H](NC(=O)[C@H](CCCNC(=N)N)NC(=O)[C@H](CO)NC(=O)[C@H](CCCCN)NC(=O)[C@@H]4CCCN4C(=O)[C@H]([C@@H](C)CC)NC(=O)[C@H]([C@@H](C)O)NC(=O)[C@H](CC(=O)O)NC(=O)[C@H]([C@@H](C)CC)NC(=O)[C@@H](NC(=O)[C@H](CO)NC(=O)[C@@H](N)CCCNC(=N)N)CSSC[C@@H](C(N)=O)NC(=O)[C@H]([C@@H](C)O)NC(=O)CNC3=O)C(=O)N[C@@H]([C@@H](C)O)C(=O)N[C@@H](C)C(=O)N[C@@H](Cc3ccccc3)C(=O)N[C@@H](CCCCN)C(=O)N2)NC(=O)[C@H](Cc2ccccc2)NC(=O)[C@H](CO)NC(=O)[C@H](CC(C)C)NC(=O)[C@H](CCCNC(=N)N)NC(=O)[C@H](Cc2ccc(O)cc2)NC(=O)[C@H](CCCCN)NC1=O [[Lys16, Nva21]ShK-amide] | 0.47 | 0.486 | 0.932
CC[C@H](C)[C@@H]1NC(=O)[C@H]([C@@H](C)O)NC(=O)[C@H](CC(=O)O)NC(=O)[C@H](CCC(=O)O)NC(=O)[C@@H](NC(=O)[C@H](CO)NC(=O)[C@@H](N)CCCNC(=N)N)CSSC[C@@H](C(N)=O)NC(=O)[C@H]([C@@H](C)O)NC(=O)CNC(=O)[C@@H]2CSSC[C@@H]3NC(=O)[C@H](CCCCN)NC(=O)[C@H](Cc4ccccc4)NC(=O)[C@H](C)NC(=O)[C@H]([C@@H](C)O)NC(=O)[C@H](CSSC[C@H](NC(=O)[C@H](Cc4ccccc4)NC(=O)[C@H](CO)NC(=O)[C@H](CC(C)C)NC(=O)[C@H](CCCNC(=N)N)NC(=O)[C@H](Cc4ccc(O)cc4)NC(=O)[C@H](CCCCN)NC(=O)[C@H]([C@@H](C)O)NC(=O)[C@H](CO)NC(=O)[C@H](Cc4c[nH]cn4)NC(=O)[C@H](CCCCN)NC3=O)C(=O)N[C@@H](CCCNC(=N)N)C(=O)N[C@@H](CCCCN)C(=O)N[C@@H]([C@@H](C)O)C(=O)N2)NC(=O)[C@H](CCCNC(=N)N)NC(=O)[C@H](CO)NC(=O)[C@H](CCCCN)NC(=O)[C@@H]2CCCN2C1=O [[Glu4, Lys16,Thr21]ShK-amide] | 0.085 | 1.38 | 3.94
CC[C@H](C)[C@@H]1NC(=O)[C@@H](NC(=O)[C@H](CO)NC(=O)[C@@H](N)CCCNC(=N)N)CSSC[C@@H](C(=O)O)NC(=O)[C@H]([C@@H](C)O)NC(=O)CNC(=O)[C@@H]2CSSC[C@@H]3NC(=O)[C@H](CCCCN)NC(=O)[C@H](Cc4ccccc4)NC(=O)[C@H](C)NC(=O)[C@H]([C@@H](C)O)NC(=O)[C@H](CSSC[C@H](NC(=O)[C@H](Cc4ccccc4)NC(=O)[C@H](CO)NC(=O)[C@H](CC(C)C)NC(=O)[C@H](CCCNC(=N)N)NC(=O)[C@H](Cc4ccc(O)cc4)NC(=O)[C@H](CCCCN)NC(=O)[C@H](CCSC)NC(=O)[C@H](CO)NC(=O)[C@H](Cc4c[nH]cn4)NC(=O)[C@H](CCCCN)NC3=O)C(=O)N[C@@H](CCCNC(=N)N)C(=O)N[C@@H](CCC(=O)O)C(=O)N[C@@H]([C@@H](C)O)C(=O)N2)NC(=O)[C@H](CCCNC(=N)N)NC(=O)[C@H](CO)NC(=O)[C@H](CCCCN)NC(=O)[C@@H]2CCCN2C(=O)[C@H]([C@@H](C)CC)NC(=O)[C@H]([C@@H](C)O)NC(=O)[C@H](CC(=O)O)NC1=O [[Lys16, Glu30]ShK] | 0.073 | 0.032 | 0.081
